Reference: US7112339B1, “Compositions for controlled release of a biologically active agent, and the preparation thereof” (DelSiTech Oy, priority 1999, dated 2006)

Tested on: Factor Xa
Test: Factor Xa assay (HEPRN) of heparin biological activity
Assay type: biochemical
Procedure: The silica sol loaded with heparin was prepared by a two step sol-gel process using acid as a catalyst (Ellerby et al. 1992). The following reagents were used, tetraethoxysilane (TEOS) (Aldrich), deionized water, nitric acid (HNO3) (Merck), acetic acid (CH3COOH) (Merck), ammonium hydroxide (NH4OH) (Merck)) and heparin sodium salt (Orion Corporation, Finland). The biological activity of the used heparin was 84 IU/mg measured by Factor Xa assay (HEPRN). The first step of the reaction series was a hydrolysis reaction between water and alkoxide. The mol ratio of the silica sol was TEOS:H2O:HNO3=1:15:0.0015 and TEOS:H2O:CH3COOH=1:15:0.026, respectively. Modification of the nitric acid catalyzed sol was carried out by co-hydrolysis of TEOS with the following organomodified (i.e. alkylsubstituted) alkoxysilanes: dimethyldiethoxysilane Me2Si(OEt)2 (DMDES) (Lancaster), methyltriethoxysilane MeSi(OEt)3(METES) (Aldrich) or ethyltriethoxysilane EtSi(OEt)3 (ETES) (Lancaster). For the partial substitution of TEOS, 10 or 25 mol-% organomodified alkoxysilane was used. After the first step, i.e. hydrolysis reaction, pH was raised to 4.54.8 with base (0.1 or 1 M NH4OH) before heparin addition. […] The concentration of heparin in silica sol ranged from 1 wt % to 4 wt % calculated on the sol, corresponding to 6.8–29.2 wt % in the air dried silica xerogel. […]

## heparin
  biological activity of the used heparin: 84 IU/mg
